Results on six molecules are retold here after ChEMBL document CHEMBL1148993, “UV-mediated genotoxicity of furanoquinoline and of certain tryptophan-derived alkaloids” (J Nat Prod, 1983).

Counter-ions that a name gives are not always drawn.

A short description of data set [1]: Genotoxicity in CHO cells assessed as mitotic inhibition at 0.62 ppm after 60 mins in dark followed by 5 W/m'2 UV irradiation for 30 mins. Format: toxicity, cell-based, Cricetulus griseus. Conditions: chinese hamster, CHO cells; read-out: Activity; call rule not given here.
The test system of data set [2] is CHO. The experiment in a line: Phototoxicity against CHO cells assessed as mitotic inhibition at 12 ppm after UV irradiation. Format: cell-based, Cricetulus griseus. Conditions: chinese hamster.
For data set [3], the system named is CHO. The data set is described as follows: Genotoxicity in CHO cells assessed as mitotic inhibition at 6.3 ppm after 60 mins in dark followed by 5 W/m'2 UV irradiation for 30 mins. It counts as toxicity, cell-based, Cricetulus griseus. The following applies: chinese hamster, 0.5 h.
The test system of data set [4] is CHO. The experiment in a line: Genotoxicity in CHO cells assessed as chromosomal aberrations at 100 ppm after 60 mins in dark followed by 5 W/m'2 UV irradiation for 30 mins. Format: toxicity, cell-based, Cricetulus griseus. The following applies: chinese hamster, 0.5 h.
The test system of data set [5] is CHO. The experiment in a line: Phototoxicity against CHO cells at 25 ppm. Format: cell-based, Cricetulus griseus. Conditions: chinese hamster.
The test system of data set [6] is CHO. The data set is described as follows: Genotoxicity in CHO cells assessed as chromosomal aberrations at 100 ppm after 90 mins in dark. It counts as toxicity, cell-based, Cricetulus griseus. Conditions: chinese hamster, 1.5 h.
The subject of data set [7] is CHO. The experiment in a line: Genotoxicity in CHO cells assessed as chromosomal aberrations at 12.5 ppm after 60 mins in dark followed by 5 W/m'2 UV irradiation for 30 mins. Format: toxicity, cell-based, Cricetulus griseus. Conditions: chinese hamster, 0.5 h.
The subject of data set [8] is CHO. The experiment in a line: Genotoxicity in CHO cells assessed as chromosomal aberrations at 25 ppm after 60 mins in dark followed by 5 W/m'2 UV irradiation for 30 mins. It counts as toxicity, cell-based, Cricetulus griseus. The following applies: chinese hamster.
The subject of data set [9] is CHO. The data set is described as follows: Genotoxicity in CHO cells assessed as chromosomal aberrations at 50 ppm after 60 mins in dark followed by 5 W/m'2 UV irradiation for 30 mins. The following applies: chinese hamster. Format: toxicity, cell-based, Cricetulus griseus.
For data set [10], the system named is CHO. The experiment in a line: Genotoxicity in CHO cells assessed as chromosomal aberrations at 50 ppm after 90 mins in dark. It counts as toxicity, cell-based, Cricetulus griseus. The following applies: chinese hamster, 1.5 h.
Data set [11] has as its system CHO. The experiment in a line: Genotoxicity in CHO cells assessed as chromosomal aberrations at 0.8 ppm after 60 mins in dark followed by 5 W/m'2 UV irradiation for 30 mins. It counts as toxicity, cell-based, Cricetulus griseus. Conditions: chinese hamster, 0.5 h.
For data set [12], the system named is CHO. The experiment in a line: Genotoxicity in CHO cells assessed as chromosomal aberrations at 6.2 ppm after 60 mins in dark followed by 5 W/m'2 UV irradiation for 30 mins. Format: toxicity, cell-based, Cricetulus griseus. The following applies: chinese hamster, 0.5 h.
For data set [13], the system named is CHO. The experiment in a line: Genotoxicity in CHO cells assessed as chromosomal aberrations at 3.1 ppm after 60 mins in dark followed by 5 W/m'2 UV irradiation for 30 mins. It counts as toxicity, cell-based, Cricetulus griseus. Conditions: chinese hamster, 0.5 h.
The test system of data set [14] is CHO. The experiment in a line: Genotoxicity in CHO cells assessed as chromosomal aberrations at 0.4 ppm after 60 mins in dark followed by 5 W/m'2 UV irradiation for 30 mins. Conditions: chinese hamster, 0.5 h. It counts as toxicity, cell-based, Cricetulus griseus.
For data set [15], the system named is Pseudomonas aeruginosa. The data set is described as follows: Phototoxicity against Pseudomonas aeruginosa at 100 ug/disk in dark. Format: functional. Conditions: light or radiation study, read-out: IZ.
The subject of data set [16] is Staphylococcus aureus. The experiment in a line: Phototoxicity against Staphylococcus aureus at 100 ug/disk in dark. Format: functional. Conditions: light or radiation study, read-out: IZ.
The subject of data set [17] is Bacillus subtilis. The experiment in a line: Phototoxicity against Bacillus subtilis at 100 ug/disk after irradiation with W/m'2 UV light. It counts as functional. The following applies: light or radiation study, read-out: IZ.
The subject of data set [18] is Enterococcus faecalis. The experiment in a line: Phototoxicity against Streptococcus faecalis at 100 ug/disk after irradiation with W/m'2 UV light. It counts as functional. The following applies: light or radiation study, read-out: IZ.
For data set [19], the system named is Staphylococcus aureus. The data set is described as follows: Phototoxicity against Staphylococcus aureus at 100 ug/disk after irradiation with W/m'2 UV light. It counts as functional. Conditions: light or radiation study, read-out: IZ.
The subject of data set [20] is Candida albicans. The data set is described as follows: Phototoxicity against Candida albicans at 100 ug/disk after irradiation with W/m'2 UV light. Format: functional. The following applies: light or radiation study, read-out: IZ.
Data set [21] concerns Pseudomonas fluorescens. The data set is described as follows: Phototoxicity against Pseudomonas fluorescens at 100 ug/disk after irradiation with W/m'2 UV light. The following applies: light or radiation study, read-out: IZ. Format: functional.
The subject of data set [22] is Enterococcus faecalis. The data set is described as follows: Phototoxicity against Streptococcus faecalis at 100 ug/disk in dark. It counts as functional. Conditions: light or radiation study, read-out: IZ.
The test system of data set [23] is Candida albicans. The experiment in a line: Phototoxicity against Candida albicans at 100 ug/disk in dark. Format: functional. Conditions: light or radiation study, read-out: IZ.
For data set [24], the system named is Bacillus subtilis. The data set is described as follows: Phototoxicity against Bacillus subtilis at 100 ug/disk in dark. Format: functional. The following applies: light or radiation study, read-out: IZ.
Data set [25] concerns Saccharomyces cerevisiae. The data set is described as follows: Phototoxicity against Saccharomyces cerevisiae at 100 ug/disk in dark. Format: functional. Conditions: light or radiation study, read-out: IZ.
Data set [26] relates to Escherichia coli. The experiment in a line: Phototoxicity against Escherichia coli at 100 ug/disk after irradiation with W/m'2 UV light. Format: functional. Conditions: light or radiation study, read-out: IZ.
Data set [27] concerns Escherichia coli. The data set is described as follows: Phototoxicity against Escherichia coli at 100 ug/disk in dark. Format: functional. Conditions: light or radiation study, read-out: IZ.
In data set [28] the test system is Saccharomyces cerevisiae. The experiment in a line: Phototoxicity against Saccharomyces cerevisiae at 100 ug/disk after irradiation with W/m'2 UV light. Format: functional. The following applies: light or radiation study, read-out: IZ.
Data set [29] deals with Pseudomonas aeruginosa. The experiment in a line: Phototoxicity against Pseudomonas aeruginosa at 100 ug/disk after irradiation with W/m'2 UV light. It counts as functional. The following applies: light or radiation study, read-out: IZ.
Data set [30] concerns Pseudomonas fluorescens. The experiment in a line: Phototoxicity against Pseudomonas fluorescens at 100 ug/disk in dark. It counts as functional. Conditions: light or radiation study, read-out: IZ.
Data set [31] relates to CHO. The data set is described as follows: Genotoxicity against CHO cells. The following applies: chinese hamster. It counts as toxicity, cell-based, Cricetulus griseus.
In data set [32] the test system is CHO. The data set is described as follows: Genotoxicity against CHO cells after UV irradiation. Format: toxicity, cell-based, Cricetulus griseus. Conditions: chinese hamster.

On to `c1ccc2c(c1)[nH]c1cnccc12` [NORHARMANE], for which the inhibition at 0.5 h, 0.62 ppm in data set [1] came out at 0%.
Regarding `C=C[C@H]1C[N@@]2CC[C@H]1C[C@H]2[C@H](O)c1ccnc2ccc(OC)cc12` [QUININE], the Activity entry in the data set on CHO [2] is “Active”; in the data set on CHO [3] it was “Active”; with CHO [4], “Toxic”; in the data set on CHO [5], “Active”; with CHO [6], 0%; with CHO [7], “Toxic”. Besides, the Activity entry in the data set with CHO [8] and in the data set on CHO [9] was “Toxic” each time.
Consider `COc1ccc2c(OC)c3ccoc3nc2c1OC` [SKIMMIANINE], for which the Activity in the data set with CHO [10] worked out at 0%; with CHO [11] it was 10.9%; in the data set with CHO [12], 59.9%; in the data set on CHO [13], 45%; with CHO [14], 3%; in the data set on CHO [7] it was 61.9%. In addition, the Activity was 50% in the data set on CHO [8] and “Toxic” in the data set with CHO [9].
Regarding `O=C1C[C@@H]2OCC=C3CN4CC[C@]56c7ccccc7N1[C@H]5[C@H]2[C@H]3C[C@H]46` [STRYCHNINE SULFATE], the zone of inhibition at 100 µg/disc in the data set on Pseudomonas aeruginosa [15], in the data set on Staphylococcus aureus [16], with Bacillus subtilis [17], in the data set on Enterococcus faecalis [18], in the data set on Staphylococcus aureus [19] and with Candida albicans [20] was 0 mm each time. Also, the zone of inhibition at 100 µg/disc in the data set on Pseudomonas fluorescens [21], in the data set with Enterococcus faecalis [22], with Candida albicans [23], with Bacillus subtilis [24], in the data set with Saccharomyces cerevisiae [25] and with Escherichia coli [26] was 0 mm each time. The zone of inhibition at 100 µg/disc with Escherichia coli [27], with Saccharomyces cerevisiae [28], in the data set on Pseudomonas aeruginosa [29] and in the data set with Pseudomonas fluorescens [30] was 0 mm in each case.
In the case of `O=C1C[C@@H]2OCC=C3CN4CC[C@]56c7ccccc7N1[C@H]5[C@H]2[C@H]3C[C@H]46` [STRYCHNINE], the Activity entry with CHO [31] and with CHO [32] was “Not Active” each time.
For `CC[C@]1(O)C[C@@H]2CN(CCc3c([nH]c4ccccc34)[C@@](C(=O)OC)(c3cc4c(cc3OC)N(C)[C@H]3[C@@](O)(C(=O)OC)[C@H](OC(C)=O)[C@]5(CC)C=CCN6CC[C@]43[C@@H]65)C2)C1` [VINBLASTINE], the Activity result in the data set with CHO [31] and with CHO [32] was “Not Active” in each case.
